In series [1] the test system is Hep-G2 (ATCC No. HB-8065) tumor cell line. The series can be described thus: Cell proliferation test (intracellular ATP, CellTiterGlo) on Hep-G2. In kind it is cell-based. The settings on record: read-out: Activity in a cell proliferation test, expressed as TC50 value, Hep-G2. How it is done: (§1) A test which is based on determining the intracellular concentration of ATP is employed for detecting the inhibition of cell proliferation. It is possible to use known tumor cell lines such as Hep-G2 and Colo205. In this test, the ATP content of metabolically active cells serves, in a luciferase reaction, as a measure of the number of living cells.
(§2) The compounds of the formula (II)-(VI) were used in the test in a single dose of 0.3-40 μM and a dose dependency given as a TC50 value, with (IIA) and (IIB) in each case denoting a diastereomer of the compound of the formula (II): […]
(§3) The tumor cell lines Hep-G2 (ATCC No. HB-8065) and COLO 205 (ATCC No. CCL-222) were used for determining the cell proliferation. The cell lines were sown in cell culture medium at the rate of 1000 cells/well [Hep-G2] and, respectively, 3500 cells/well [Colo205] and incubated for 4 hours at 37° C. and 5% CO2.
Medium for Hep-G2: Dulbecco's modified Eagle's medium/Ham's F12 mix (Gibco); NEAA (10%; nonessential amino acids, Gibco), sodium pyruvate (1%, Gibco), L-glutamine (1%, Gibco), fetal calf serum (5%; PAA)].
(§4) After 4 hours, compounds (II), (III) and (IV) and bengamides E and F, dissolved in DMSO/cell culture medium, were added at various dilutions and the mixtures were incubated for 72 hours at 37° C. and 5% CO2. The intracellular content of ATP was determined using the test reagent CellTiterGlo (Promega).
For orientation: ATP-based viability assays read luminescence as a measure of living cells.

In series [2] the test system is COLO 205 (ATCC No. CCL-222) tumor cell line. Put plainly: Cell proliferation test (intracellular ATP, CellTiterGlo) on COLO 205. In kind it is cell-based. The settings on record: read-out: Activity in a cell proliferation test, expressed as TC50 value, Colo 205. The procedure: as §1, §2, §3
Medium for COLO 205: RPMI 1640 (Gibco), L-glutamine (1%, Gibco), HEPES (1%, Gibco), fetal calf serum (10%, PAA).
as §4

Series [3] concerns eukaryotic cells, nematodes and bacteria. The conditions noted are these: Adamczewski et al., J. Org. Chem. 1986; cited from earlier work.
The test system of series [4] is cell proliferation. The settings on record: stops cell division at the G1/S restriction point and in the G2/M phase; cited from earlier work.
[5] abbreviates: Colo 205, 72 hours incubation, ATP content, tested at 0.3-40 μM.

SMILES strings stand for the structures. Where two headings read alike, the source gives them in different places.

As for `CCC(C)/C=C/C(O)C(O)C(O)[C@@H](OC)C(=O)N[C@H]1CCCCN(C)C1=O` (stereo partly shown) [(III)], in series [1] (Homo sapiens, HepG2, 72 h), the TC50 (50% inhibition of cell proliferation) was 9 µM. Moreover, the CC50 in series [2] (Homo sapiens, COLO 205, 72 h) is 15 µM.
Turning to `CCC(C)/C=C/C(O)C(O)C(O)[C@@H](OC)C(=O)N[C@H]1CCC(O)CNC1=O` (stereo partly shown) [(IV)], in series [1] (Homo sapiens, HepG2, 72 h), the TC50 (50% inhibition of cell proliferation) was greater than 40 µM. For the same compound, in series [2] (setting [5]), the CC50 is 42 µM.
As to `CCCCCCCCCCCCCC(=O)O[C@H]1CC[C@H](NC(=O)[C@H](OC)[C@H](O)[C@@H](O)[C@H](O)/C=C/C(C)C)C(=O)NC1` [Bengamide A], the “Biotoxicity to eukaryotic cells, nematodes and bacteria” value in series [3] was “biotoxic”.
With `CCCCCCCCCCCCCC(=O)O[C@H]1CC[C@H](NC(=O)[C@H](OC)[C@H](O)[C@@H](O)[C@H](O)/C=C/C(C)C)C(=O)N(C)C1` [Bengamide B], in series [3], the “Biotoxicity to eukaryotic cells, nematodes and bacteria” value was “biotoxic”.
Take `CO[C@@H](C(=O)N[C@H]1CCCCNC1=O)[C@H](O)[C@@H](O)[C@H](O)/C=C/C(C)C` [Bengamide E]: the “Inhibition of cell proliferation” value in series [4] was “inhibits cell proliferation”. For the same compound, the TC50 (50% inhibition of cell proliferation) in series [1] (Homo sapiens, HepG2, Hep-G2, 72 hours incubation, ATP content, tested at 0.3-40 μM) stood at 36 µM. Besides, the CC50 in series [2] (setting [5]) is 46 µM.
For `CO[C@@H](C(=O)N[C@H]1CCCCN(C)C1=O)[C@H](O)[C@@H](O)[C@H](O)/C=C/C(C)C` [Bengamide F], the TC50 (50% inhibition of cell proliferation) in series [1] (Hep-G2, 72 hours incubation, ATP content, tested at 0.3-40 μM) stood at 27 µM. The CC50 in series [2] (setting [5]) was found to be 33 µM.
`CCC(C)/C=C/C(O)C(O)C(O)[C@@H](OC)C(=O)N[C@H]1CCCCNC1=O` (stereo partly shown) [Compound (II)]: in series [1] (Homo sapiens, HepG2, 72 h), the TC50 (50% inhibition of cell proliferation) stood at 16 µM. Besides, in series [2] (Homo sapiens, COLO 205, 72 h), the CC50 came out at 27 µM.

The record behind these values is patent US7638320B2, “Bengamide derivatives, process for preparing them, and their use” (sanofi-aventis Deutschland GmbH, priority 2003, dated 2009).
